Reference: article PMC7034072, “Discovery of small molecule inhibitors of Leishmania braziliensis Hsp90 chaperone” (Journal of Enzyme Inhibition and Medicinal Chemistry, 2020)
Read-outs that look alike come from different tables or passages of the source.

Legend:
[1] = target: T1, LbHsp90 (Leishmania braziliensis, UniProt A4HL70); parameters: method as in PMID 22910377; conditions: measured by Tryptophan fluorescence quenching ref 31; read-out: KDapp LbHsp90; cited from earlier work
[2] = target: LbHsp90N; parameters: method as in PMID 22910377; conditions: measured by Tryptophan fluorescence quenching ref 31; read-out: KDapp LbHsp90N; cited from earlier work
[3] = test system: promastigote form of L. braziliensis; test: Cell viability assay (MTT/PMS), single concentration; assay type: cell-based; conditions: L. braziliensis promastigotes, 200 μM/well; for Cell viability: 72 h, MTT/PMS, Yes = leishmanicidal activity; for reduced cell viability: after 72 h
Protocol: The leishmanicidal activity of the compounds was tested in vitro against the promastigote form of L. braziliensis applying 200 μM/well, (with a total of 0.5% DMSO) into 90 μL of culture. The concentration of L. braziliensis (MHOM/BR/1973/M2269) was adjusted to 10^7 cells/mL. Amphotericin (100 μM/well) was used as positive control, and 0.5% DMSO as negative control.
The plates were incubated at room temperature (RT) for 72 h. After this period, the viability of the promastigotes was verified via MTT (3–(4, 5-Dimethylthiazol-2-yl)-2, 5-Diphenyltetrazolium Bromide) colorimetric assay. MTT/PMS 11.1 μL/well solution (MTT = 5 mg/mL; Phenazine methosulfate-PMS = 0.22 mg/mL) was added, and the plate was incubated at RT for 4 h, at 150 RPM, protected from light. Formazan crystals were then solubilised by adding 100 μL/well of a solubilisation solution containing 7% SDS, 10 mM HCl and 30% DMSO. The mixture was incubated at RT for 90 min at 150 RPM protected from light. Wells containing the medium and the compounds or DMSO without MTT were used as blank controls. The absorbance was quantified in a plate reader (Biotek Synergy HT) at 570 nm.
The cell viability percentages were calculated by the following equation: (1) Cell viability %= AT−AB/AU−AB ×100 where AT was an averaged absorbance from treated samples, AB blank absorbance and AU was an averaged absorbance from negative control.

[4] = target: T2, hHsp90β (Homo sapiens, UniProt P08238); test: ATPase activity inhibition assay (EnzChek Pi quantification); assay type: biochemical; conditions: 50 μM compound, 2 μM enzyme, 2.5 mM ATP
T2 construct: made in house; host or cells: Escherichia coli BL21(DE3)
Protocol: (§1) The ATPase activity of LbHsp90 and hHsp90β was evaluated spectrophotometrically through inorganic phosphate (Pi) quantification following ATP hydrolysis, by the EnzChek™ assay kit (Invitrogen®) as previous described[31]^,[34]. Briefly, a 2 µM solution of LbHsp90 and hHsp90β enzymes was prepared in 150 mM NaCl, 5 mM MgCl2 and 20 mM Tris-HCl, pH 7.5, and incubated with ATP (concentration range 0–5 mM) for 60 min at 37 °C. Then, the chromogenic substrate 2-amino-6-mercapto 7-methyl purine riboside (MESG) and the purine nucleoside phosphorylase (PNP) were added and the resulting reaction mixture was incubated for 30 min at 37 °C. The assays were performed in a 96-well plate and kinetic parameters determined by Michaelis–Menten fitting using GraphPad Prism 6 software.
(§2) Initial screenings were performed using 50 μM compound concentration in a reaction mixture consisting of 2 μM enzyme and 2.5 mM ATP. After 1 h incubation at 37 °C, MESG and PNP were added. The amount of Pi was estimated after 30 min incubation at 37 °C. […] A compound concentration ranging from 1 to 75 μM was included in the reaction mixture and Pi quantification performed as previously described (measurements were performed in triplicate). IC50 values were determined by non-linear regression data fitting (using GraphPad Prism 6 software).

[5] = test system: L. amazonensis; parameters: method as in PMID 31611575; conditions: determined against L. amazonensis ref 36; read-out: IC50 (L. braziliensis column); cited from earlier work
[6] = test system: LbHsp90 and LbHsp90N recombinant proteins; test: Differential scanning fluorimetry (thermal shift assay); assay type: binding, L. braziliensis; conditions: DSF; for Thermal shift: inclusion criterion Tm variation greater or equal to ± 2 °C in LbHsp90 or LbHsp90N, Yes/No
Protocol: The interaction of Hsp90 proteins with different compounds was monitored through the melting temperature (Tm) of each protein in the presence of a fixed concentration of the target compound by differential scanning fluorimetry (DSF) also referred as thermal shift assay. A final concentration of 10 µM of dimeric LbHsp90 and 20 µM of monomeric LbHsp90N in 40 mM Hepes buffer (pH 7.5) containing 100 mM KCl were used. The DMSO concentration in each sample was fixed at 2.5% (v/v). Prior to the readings, the samples were incubated for 30 min on ice. The fluorophore Sypro Orange (Life Technologies) was used as fluorescent probe. The experiments were performed at a thermocycler CFX96 Touch Real Time PCR Detection System (BioRad) and the data were analysed using the CFX Manager software (BioRad). As positive controls, 100 µM of GA and Radicicol (RDC) were used.

[7] = target: T1, LbHsp90; test: ATPase activity inhibition assay (EnzChek Pi quantification); assay type: biochemical
Protocol: as §1
as §2, with “The inhibitory activity against LbHsp90 and hHsp90β of compounds showing interaction in DSF assays (namely Glb08, Glb15, Gl23, Glb25 and Glb27) was determined using spectrophotometric ATPase activity assays as described above. Initial” for “Initial”, “°C. GA was used as reference compound, reporting 100% ATPase activity inhibition (at 50 μM).” for “°C.”

[8] = test system: Balb-c 3T3 clone A31 mouse fibroblasts; test: Cytotoxic assay (MTT); assay type: cell-based; conditions: Balb-c 3T3 mouse fibroblasts, 72 h, 37 °C
Protocol: Compounds cytotoxicity was evaluated in 100 μL of Balb-c 3T3 cone A31 mouse fibroblasts (10^5 cells/mL) into a 96-well plate, incubated for 24 h at 37 °C to become adhered. After this period, the medium was washed and 100 μL of each compound was added to the culture medium (concentration ranging from 1 to 200 μM/well, with a total of 0.5% DMSO) in quadruplicate. Rapamycin was used as a positive control, and 0.5% DMSO was used as negative control. The plates were incubated for 72 h at 37 °C. After this, the viability of Balb-c 3T3 cells was evaluated by MTT colorimetric assay, as described previously.

[9] = target: T3, hHsp90βN (Homo sapiens, UniProt P08238); test: Tryptophan fluorescence quenching interaction assay; assay type: binding; conditions: N-terminal domain, read-out: KDapp hHsp90βN
T3 construct: N-terminal domain construct (Hsp90βN – residues 1–223); His-tag (cleaved yes); made in house; host or cells: Escherichia coli BL21(DE3)
Protocol: (§3) Two µM of protein in 40 mM Hepes buffer (pH 7.5), 100 mM KCl, was incubated for 30 min on ice with increasing concentrations of the compounds diluted in DMSO. […] The samples were excited at 280 nm and the emission was collected in the 300–400 nm range, in a 1.0 × 0.2 cm optical path cuvette, on an F-4500 Fluorescence Spectrophotometer (Hitachi). The fluorescence quenching was analysed at the maximum emission wavelength in the absence of ligand. The determination of the apparent dissociation constant (KDapp) was performed by fitting the fluorescence values obtained for each compound concentration according to a dose-response model through the Equation (3): (3) y = Fmin + (Fmax−Fmin)/(1+10^(logKD− [ligand])) where Fmin and Fmax are the minimum and maximum fluorescence intensity and [ligand] is the compound concentration used in the assay, according to the GraphPad Prism 5 software. The fluorescence intensities were corrected by inner filter effects as previously described.

[10] = target: T2, hHsp90β; test: as above; assay type: binding; conditions: full-length, tryptophan fluorescence quenching; read-out: KDapp hHsp90β
Protocol: as §3

[11] = target: T1, LbHsp90; test: as above; assay type: binding; conditions: full-length, tryptophan fluorescence quenching; read-out: KDapp LbHsp90
Protocol: as §3

[12] = target: LbHsp90N; test: as above; assay type: binding, L. braziliensis; conditions: N-terminal domain, read-out: KDapp LbHsp90N
Protocol: as §3

[13] = test system: promastigote forms of L. braziliensis; test: In vitro IC50 determination (leishmanicidal activity, MTT/PMS); assay type: cell-based; conditions: promastigotes, 72 h, RT
Protocol: Amphotericin 100 μM/well and 0.5% DMSO were used as positive and negative control, respectively. The plates were incubated at RT for 72 h. After this, the viability of the promastigotes was verified by MTT/PMS colorimetric assay, as described above. In vitro leishmanicidal activity, expressed as IC50, was determined using GraphPad Prism 5 software according to the following equation: (2) y= Amin + Amax−Amin/1+10^logIC50 −x*Hillslope where Amin and Amax are, respectively, the minimum and maximum activities obtained, x is the ligand concentration and Hill Slope is the parameter that describes the steepness of the curve.
The selectivity index parameter was obtained by the ratio of compound IC50 against mammalian cells and compound IC50 against promastigote cells.

[14] = compound 1 to 75 μM, triplicate, read-out: IC50 LbHsp90 ATPase activity inhibition

T1 sequence (A4HL70 entry or part of it): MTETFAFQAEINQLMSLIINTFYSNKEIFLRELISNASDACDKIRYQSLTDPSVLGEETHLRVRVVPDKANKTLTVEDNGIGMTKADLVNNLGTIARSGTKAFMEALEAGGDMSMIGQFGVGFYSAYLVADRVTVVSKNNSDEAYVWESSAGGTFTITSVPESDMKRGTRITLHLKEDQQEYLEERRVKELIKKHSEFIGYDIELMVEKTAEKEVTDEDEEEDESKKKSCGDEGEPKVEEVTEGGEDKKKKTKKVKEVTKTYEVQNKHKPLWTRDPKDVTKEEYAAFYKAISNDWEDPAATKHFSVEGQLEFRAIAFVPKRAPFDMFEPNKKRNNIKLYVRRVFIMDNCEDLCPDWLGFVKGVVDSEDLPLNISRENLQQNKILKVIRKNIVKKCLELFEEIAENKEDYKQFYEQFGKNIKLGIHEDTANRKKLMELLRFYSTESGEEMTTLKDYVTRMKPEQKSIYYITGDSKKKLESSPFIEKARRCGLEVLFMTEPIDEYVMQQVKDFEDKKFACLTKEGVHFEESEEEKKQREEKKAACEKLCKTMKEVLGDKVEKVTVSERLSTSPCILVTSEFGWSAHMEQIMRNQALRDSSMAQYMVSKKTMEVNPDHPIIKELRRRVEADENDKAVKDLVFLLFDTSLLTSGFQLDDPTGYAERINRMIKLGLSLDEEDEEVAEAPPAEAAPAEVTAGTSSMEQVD
T3 sequence (P08238 1-223): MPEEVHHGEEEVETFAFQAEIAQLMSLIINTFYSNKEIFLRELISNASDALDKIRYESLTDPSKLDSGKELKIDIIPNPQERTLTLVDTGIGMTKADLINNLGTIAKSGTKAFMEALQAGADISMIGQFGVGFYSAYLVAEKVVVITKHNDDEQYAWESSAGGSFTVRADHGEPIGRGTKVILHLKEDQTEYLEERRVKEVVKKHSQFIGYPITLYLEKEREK
T2 sequence (P08238 whole entry): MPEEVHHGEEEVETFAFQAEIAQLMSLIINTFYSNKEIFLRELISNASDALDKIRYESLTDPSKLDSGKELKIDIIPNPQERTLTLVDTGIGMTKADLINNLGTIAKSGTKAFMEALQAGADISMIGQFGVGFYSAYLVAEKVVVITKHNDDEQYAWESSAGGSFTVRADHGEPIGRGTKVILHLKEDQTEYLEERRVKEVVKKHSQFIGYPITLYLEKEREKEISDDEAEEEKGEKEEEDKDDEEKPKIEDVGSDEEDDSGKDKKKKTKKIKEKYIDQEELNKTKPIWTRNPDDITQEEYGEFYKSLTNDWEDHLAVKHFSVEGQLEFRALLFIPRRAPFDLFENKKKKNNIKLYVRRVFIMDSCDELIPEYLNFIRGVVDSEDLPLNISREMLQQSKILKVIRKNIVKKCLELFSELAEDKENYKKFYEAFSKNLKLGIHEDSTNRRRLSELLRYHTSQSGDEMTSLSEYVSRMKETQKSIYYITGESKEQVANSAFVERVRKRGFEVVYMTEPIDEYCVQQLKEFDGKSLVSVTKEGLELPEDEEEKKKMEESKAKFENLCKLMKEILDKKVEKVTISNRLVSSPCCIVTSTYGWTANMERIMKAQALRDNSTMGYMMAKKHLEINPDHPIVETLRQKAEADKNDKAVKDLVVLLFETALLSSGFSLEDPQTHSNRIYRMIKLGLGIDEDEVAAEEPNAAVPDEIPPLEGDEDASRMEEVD

Compound	Kd [1] [µM]	Kd [2] [µM]	Cell viability [3]	percentage inhibition of hHsp90β ATPase activity [4]	IC50 [5] [µM]	ΔTm ([6]; 100 µM positive controls, protein stabilisation) [°C]	IC50 [7] [µM]	inhibition at 50 µM ([7]; read-out: percentage inhibition of LbHsp90 ATPase activity) [%]	IC50 [8] [µM]	Kd [9] [µM]	Kd [10] [µM]	Kd [11] [µM]	reduced cell viability [3]	Thermal shift [6]	Kd [12] [µM]	IC50 [7, 14] [µM]	IC50 [13] [µM]
COC1=C2C[C@@H](C)C[C@H](OC)[C@H](O)[C@@H](C)/C=C(\C)[C@H](OC(N)=O)[C@@H](OC)/C=C\C=C(/C)C(=O)NC(=CC1=O)C2=O [GA, geldanamycin, reference compound]	7.6 ± 0.2	1.8 ± 0.3	Yes	fully inhibits enzyme activity	0.19	> 2.0	9	100									
N=C(N)Nc1nc(-c2ccccc2)c2ccccc2n1 [Glb08]			Yes	lower than 60%					75 ± 3	29 ± 3	20 ± 5	13 ± 4	more than 60%	positive outcomes and Yes	17 ± 6	30 ± 1	43 ± 2
N=C(N)NN=Cc1cnn(Cc2ccccc2)c1 [Glb15]			Yes	lower than 60%					> 200	12 ± 3	14 ± 6	14 ± 4	more than 60%	No	13 ± 3	36 ± 1	71 ± 2
Cc1cc(CSC(=N)N)c2oc(-c3ccccc3)cc(=O)c2c1 [Glb25]			Yes	lower than 60%					11 ± 1	14 ± 3	15 ± 9	7 ± 3	more than 60%	positive outcomes and Yes	12 ± 2		> 200
